Experimental data taken from publication PMC7201828, “Comparison of Inhibitor and Substrate Selectivity between Rodent and Human Vascular Adhesion Protein-1” (Mediators of Inflammation, 2020).
Entries after “also recorded” stand apart in the source; their conditions may differ. Where two headings read alike, the source gives them in different places.

Experiments:
rhVAP-1 = tested on: rhVAP-1; design: method as in PMID 23664164; details: recombinant human VAP-1; cited from earlier work
rat VAP-1 = tested on: rat VAP-1; design: method as in PMID 23540955; details: recombinant enzyme suspension from CHO cells expressing rat VAP-1, 14C-BA; read-out: IC50 previously reported, Rat; cited from earlier work
human VAP-1 = tested on: human VAP-1; design: method as in PMID 23540955; details: recombinant enzyme suspension from CHO cells expressing human VAP-1, 14C-BA; read-out: IC50 previously reported, Human; cited from earlier work
[1] = molecular target: T1, recombinant rat VAP-1 (rrVAP-1) (Rattus norvegicus, UniProt O08590); assay: VAP-1 oxidative deamination fluorescence assay (Amplex Red, benzylamine), inhibition; format: biochemical; details: recombinant rat VAP-1, 50 μM BA, 30 minutes at 37°C, three separate determinations; read-out: IC50 mean ± SD, Rat
T1 construct: purchased R&D Systems (custom product); host or cells: Spodoptera frugiperda Sf21 (baculovirus)
T1 sequence (O08590 28-763 limits assumed): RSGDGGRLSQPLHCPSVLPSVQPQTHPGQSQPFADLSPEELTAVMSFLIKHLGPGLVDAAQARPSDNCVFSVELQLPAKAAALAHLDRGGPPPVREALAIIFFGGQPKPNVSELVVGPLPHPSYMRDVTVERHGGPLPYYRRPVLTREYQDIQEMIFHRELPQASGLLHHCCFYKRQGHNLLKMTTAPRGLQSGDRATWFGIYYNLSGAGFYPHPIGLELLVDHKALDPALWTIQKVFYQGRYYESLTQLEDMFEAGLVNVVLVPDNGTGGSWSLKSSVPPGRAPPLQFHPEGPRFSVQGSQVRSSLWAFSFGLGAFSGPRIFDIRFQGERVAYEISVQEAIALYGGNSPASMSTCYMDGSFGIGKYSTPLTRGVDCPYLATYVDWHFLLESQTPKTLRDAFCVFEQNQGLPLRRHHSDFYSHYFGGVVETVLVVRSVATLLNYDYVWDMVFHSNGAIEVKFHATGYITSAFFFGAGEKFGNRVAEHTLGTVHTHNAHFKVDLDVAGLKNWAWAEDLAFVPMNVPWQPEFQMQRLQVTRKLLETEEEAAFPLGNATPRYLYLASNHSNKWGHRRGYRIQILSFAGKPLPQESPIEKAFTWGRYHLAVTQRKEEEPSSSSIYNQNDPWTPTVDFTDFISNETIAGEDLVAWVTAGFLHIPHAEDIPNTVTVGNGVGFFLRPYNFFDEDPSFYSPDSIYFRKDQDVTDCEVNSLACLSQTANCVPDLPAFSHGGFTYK
Protocol: (§1) Data processing was performed using Prism software.

[2] = molecular target: T2, recombinant human VAP-1 (rhVAP-1) (Homo sapiens, UniProt Q16853); assay: as above; format: biochemical; details: for IC50: recombinant human VAP-1, 50 μM BA, 30 minutes at 37°C, three separate determinations, read-out: IC50 mean ± SD, Human
T2 construct: purchased R&D Systems 3957-AO-010; host or cells: Spodoptera frugiperda Sf21 (baculovirus)
T2 sequence (Q16853 27-763 limits assumed): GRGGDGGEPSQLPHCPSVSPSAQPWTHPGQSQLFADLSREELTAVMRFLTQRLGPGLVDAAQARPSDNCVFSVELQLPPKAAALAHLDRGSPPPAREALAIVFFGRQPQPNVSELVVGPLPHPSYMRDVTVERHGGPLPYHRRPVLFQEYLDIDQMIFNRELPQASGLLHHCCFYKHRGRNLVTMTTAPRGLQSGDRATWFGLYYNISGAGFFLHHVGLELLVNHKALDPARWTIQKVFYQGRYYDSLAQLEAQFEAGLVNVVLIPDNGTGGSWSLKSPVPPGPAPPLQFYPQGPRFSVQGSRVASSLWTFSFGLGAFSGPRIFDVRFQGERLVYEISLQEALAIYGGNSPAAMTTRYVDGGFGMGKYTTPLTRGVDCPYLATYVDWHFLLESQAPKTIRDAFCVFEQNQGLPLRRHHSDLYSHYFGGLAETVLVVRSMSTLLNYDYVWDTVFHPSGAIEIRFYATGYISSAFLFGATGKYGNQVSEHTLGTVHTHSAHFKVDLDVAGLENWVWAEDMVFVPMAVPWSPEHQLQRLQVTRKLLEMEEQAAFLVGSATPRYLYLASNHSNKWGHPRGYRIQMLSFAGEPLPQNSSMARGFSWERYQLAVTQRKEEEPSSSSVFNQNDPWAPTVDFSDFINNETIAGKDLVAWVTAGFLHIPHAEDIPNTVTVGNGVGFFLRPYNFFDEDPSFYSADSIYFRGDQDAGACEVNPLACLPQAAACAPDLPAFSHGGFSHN
Protocol: as §1

[3] = molecular target: T3, recombinant mouse VAP-1 (rmVAP-1) (Mus musculus, UniProt O70423); assay: as above
T3 sequence (O70423 28-765 limits assumed): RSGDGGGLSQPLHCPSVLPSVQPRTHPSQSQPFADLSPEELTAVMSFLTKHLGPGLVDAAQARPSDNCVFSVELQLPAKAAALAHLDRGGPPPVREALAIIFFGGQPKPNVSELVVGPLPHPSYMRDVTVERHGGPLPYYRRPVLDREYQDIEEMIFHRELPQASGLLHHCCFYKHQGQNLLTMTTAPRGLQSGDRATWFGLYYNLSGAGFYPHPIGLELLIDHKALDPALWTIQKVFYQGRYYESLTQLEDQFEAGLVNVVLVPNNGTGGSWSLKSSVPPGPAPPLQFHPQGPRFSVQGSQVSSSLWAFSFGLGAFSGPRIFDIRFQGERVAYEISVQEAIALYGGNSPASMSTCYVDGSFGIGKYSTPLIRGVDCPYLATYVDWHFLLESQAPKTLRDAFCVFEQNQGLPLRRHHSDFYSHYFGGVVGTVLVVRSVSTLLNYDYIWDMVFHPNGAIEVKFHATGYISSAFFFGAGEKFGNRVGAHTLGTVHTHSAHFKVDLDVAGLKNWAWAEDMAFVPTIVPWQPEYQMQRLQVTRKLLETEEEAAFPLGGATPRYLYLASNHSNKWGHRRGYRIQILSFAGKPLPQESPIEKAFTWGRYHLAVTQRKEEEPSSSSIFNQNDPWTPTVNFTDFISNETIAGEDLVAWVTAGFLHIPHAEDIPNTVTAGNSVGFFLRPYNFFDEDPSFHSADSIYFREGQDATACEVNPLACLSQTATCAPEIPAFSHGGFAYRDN
Protocol: (§2) The enzymatic activity of recombinant VAP-1 and inhibitor potency was determined using a variation of the fluorometric assay for measuring hydrogen peroxide formation [22]. Briefly, the assay measures the H2O2 generated during the oxidative deamination of an amine substrate (BA for inhibition purposes) by converting Amplex® Red to the fluorescent product, resorufin, via horseradish peroxidase (HRP). […] Stock solutions of Amplex Red (1 mM), HRP (10 U/mL), the substrates (200 μM BA for inhibition), and inhibitor were prepared in reaction buffer and added to the appropriate wells, that the final concentration in each well was 0.05 mM Amplex Red, 0.5 U/mL HRP, and 50 μM BA (saturating condition) in a total reaction volume of 0.1 mL.
(§3) Standard curves were prepared for each plate by serially diluting H2O2 in reaction buffer with equivalent concentrations of Amplex Red and HRP. A 10 μM solution of resorufin was prepared in reaction buffer and was dispensed in duplicate as the positive control for maximum fluorescence. Plates were incubated for 30 minutes at 37°C, protected from light under foil to minimize the resorufin artifactually formed when Amplex Red is exposed to light [28]. The plate was read at 530/35 emission and 590/35 excitation. The mean fluorescence of the background was subtracted from the mean fluorescence of the inhibitor concentration in the presence of BA. The percent control was calculated using equation (1). […] (1) %control=average fluorescence with inhibitor−background/average fluorescence of reaction without inhibitor−background×100, (2) %inhibition=100−%control.

[4] = tested on: STZ-induced diabetic rats; design: method as in PMID 23664164; details: administered subcutaneously; cited from earlier work
[5] = tested on: VAP-1 in bovine lung microsomes; design: method as in PMID 8694842; details: coincubated with benzylamine; cited from earlier work
[6] = tested on: human VAP-1 from aorta membrane preparations; details: read-out: IC50 previously reported, Human, LC-MS/MS benzaldehyde formation; cited from earlier work
[7] = tested on: VAP-1 from rat aorta homogenates; details: read-out: IC50 previously reported, Rat, 14C-BA; cited from earlier work
[8] = molecular target: human VAP-1 recombinant enzymes; details: read-out: IC50 previously reported, Human, LC-MS/MS benzaldehyde formation; cited from earlier work
rats = tested on: rats; design: method as in PMID 16081681, PMID 23263543; details: oral administration to rats, carrageenan footpad model; cited from earlier work
mice = tested on: mice; design: method as in PMID 16081681, PMID 23263543; details: oral administration to mice, ulcerative colitis and LPS-induced endotoxemia; cited from earlier work
[9] = tested on: VAP-1 from rat lung homogenates; design: method as in PMID 16081681; details: radiolabeled substrate, read-out: IC50 previously reported, Rat; cited from earlier work
[10] = tested on: VAP-1 from human umbilical cord homogenates; design: method as in PMID 16081681; details: radiolabeled substrate, read-out: IC50 previously reported, Human; cited from earlier work
[11] = tested on: rat and mouse disease models; details: various rat and mouse disease models; cited from earlier work
[12] = tested on: VAP-1 in in vitro tissue preparations; design: method as in PMID 8920635; details: humans; cited from earlier work
VAP-1 = tested on: VAP-1; design: method as in PMID 16570912; details: cell-based inhibition assay; cited from earlier work
lysyl oxidase (LOX) = tested on: lysyl oxidase (LOX); design: method as in PMID 17872591, PMID 17452500, PMID 18469024; details: cited from earlier work
recombinant mouse VAP-1 = recombinant mouse VAP-1 (Mus musculus, UniProt O70423); assay: Substrate saturation curves, fluorometric assay detecting hydrogen peroxide; details: recombinant mouse VAP-1, n = 1 plate
Protocol: as §2, §3
(§4) Both substrates were incubated with recombinant VAP-1 in triplicate on three separate plates.

recombinant human VAP-1 = recombinant human VAP-1 (Homo sapiens, UniProt Q16853); assay: as above; details: recombinant human VAP-1, n = 1 plate
Protocol: as §2, §3, §4

recombinant rat VAP-1 = recombinant rat VAP-1 (Rattus norvegicus, UniProt O08590); assay: as above; details: recombinant rat VAP-1, n = 1 plate
Protocol: as §2, §3, §4

For `CC(=O)Nc1nc(CCc2ccc(NC(=N)N)cc2)c(Cc2ccc(S(C)(=O)=O)cc2)s1` [Astellas compound 35c], the IC50 (rhVAP-1) is given as 0.23 µM, the IC50 (rat VAP-1) is given as 0.072 µM and the IC50 (human VAP-1) is given as 0.02 µM. For the same molecule, the IC50 [1] was 0.0504 ± 0.0068 µM, the IC50 [2] was 0.0225 ± 0.0069 µM and the IC50 [3] was 0.414 ± 0.113 µM. The Ocular permeability [4] was “significantly reduced ocular permeability”.
In the case of `NNc1nncc2ccccc12` [Hydralazine (HYD), hydralazine], the “Potency relative to semicarbazide” value [5] is given as “twenty times more potent”, the IC50 [6] is given as 6.4 µM and the IC50 [7] is given as 0.025 µM. For the same molecule, the IC50 [8] was 26.5 µM, the IC50 [1] was 3.13 ± 0.123 µM and the IC50 [2] was 7.75 ± 2.32 µM. For the same molecule, the IC50 [3] was 1.18 ± 0.092 µM.
For `C=C(CNN)c1ccccc1` [LJP-1207], the Reduction of inflammation (rats) is listed as “effective in reducing inflammation”, the Reduction of inflammation (mice) is listed as “effective in reducing inflammation” and the IC50 [9] is listed as 0.0075 µM. The IC50 [1] was 0.12 ± 0.0067 µM, the IC50 [2] was 0.252 ± 0.0225 µM and the IC50 [3] was 0.102 ± 0.0478 µM. For the same molecule, the IC50 [10] was 0.017 µM.
In the case of `CC(C)(C)NC(=O)c1ccc(OC/C(=C/F)CN)cc1` [PXS-4728A], the “Leukocyte adhesion and migration to sites of lung inflammation” value [11] is given as “reduced leukocyte adhesion and migration”.
For `NCCc1ccccc1` [Phenylethylamine (PEA), phenylethylamine], the Km [12] is given as 7.9 mM.
In the case of `NNC(N)=O` [Semiarid (SEM), semicarbazide], the “Semicarbazide required for inhibition relative to LJP-1207” value (VAP-1) is listed as 100 x, the “Inhibition of lysyl oxidase (in words)” value (lysyl oxidase (LOX)) is listed as “inhibits” and the IC50 [1] is listed as 993 ± 1220 µM. The “Difference in IC50 between human and rat VAP-1” value ([2]; 85.9 μM vs. 993 μM) was ~10 fold, the IC50 [2] was 85.9 ± 12.9 µM and the IC50 ([3]; read-out: IC50 mean ± SD, Mouse, recombinant mouse VAP-1, 50 μM BA, 30 minutes at 37°C, three separate determinations) was 295 ± 29 µM.
For `NCCc1ccc(O)cc1` [TYR, tyramine], the Km [12] is listed as 10.5 mM and the “Substrate turnover (in words)” value (recombinant mouse VAP-1) is listed as “low reaction rates; also recorded: not a substrate”.
In the case of `NNCCc1ccccc1` [phenelzine], the “Potency relative to semicarbazide” value [5] is listed as “over 100 times”.
In the case of `NNc1ccccc1` [phenylhydrazine], the “Potency relative to semicarbazide” value [5] is listed as “over 100 times”.
In the case of `NCCc1c[nH]c2ccccc12` [tryptamine], the “Substrate turnover (in words)” value (recombinant human VAP-1) is reported as “low reaction rates”, the “Substrate turnover (in words)” value (recombinant rat VAP-1) is reported as “low reaction rates” and the “Substrate turnover (in words)” value (recombinant mouse VAP-1) is reported as “low reaction rates”.
